Where a name gives a salt, the structure may show the parent alone.
Molecular target: LsrK (Salmonella typhimurium, UniProt Q8ZKQ6)
Assay: biochemical
Type: biochemical, S. typhimurium
Conditions: for Inhibition (%): 50 µM

LsrK, sequence (Q8ZKQ6 whole entry): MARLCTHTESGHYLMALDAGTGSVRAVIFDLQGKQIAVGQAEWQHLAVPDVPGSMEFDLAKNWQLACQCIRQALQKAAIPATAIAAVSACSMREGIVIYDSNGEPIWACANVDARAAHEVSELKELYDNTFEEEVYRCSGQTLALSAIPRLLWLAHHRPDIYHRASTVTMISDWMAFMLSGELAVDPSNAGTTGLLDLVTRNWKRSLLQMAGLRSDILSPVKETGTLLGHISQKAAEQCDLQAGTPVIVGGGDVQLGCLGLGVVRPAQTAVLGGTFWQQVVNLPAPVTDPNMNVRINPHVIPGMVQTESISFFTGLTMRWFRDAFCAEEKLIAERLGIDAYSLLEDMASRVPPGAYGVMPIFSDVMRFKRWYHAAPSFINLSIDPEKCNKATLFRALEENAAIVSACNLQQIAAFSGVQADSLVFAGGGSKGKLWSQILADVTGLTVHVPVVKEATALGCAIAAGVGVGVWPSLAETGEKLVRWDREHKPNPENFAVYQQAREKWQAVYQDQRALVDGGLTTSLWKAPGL

| Structure (SMILES) | inhibition at 50 µM | Inhibition (%) |
| --- | --- | --- |
| CC[C@H]1OC(=O)[C@H](C)[C@@H](O[C@H]2C[C@@](C)(OC)[C@@H](O)[C@H](C)O2)[C@H](C)[C@@H](O[C@@H]2O[C@H](C)C[C@H](N(C)C)[C@H]2O)[C@](C)(OC)C[C@@H](C)C(=O)[C@H](C)[C@@H](O)[C@]1(C)O [CLARITHROMYCIN] | 0% |  |
| CCC[C@@H]1C[C@@H](C(=O)N[C@@H]([C@H]2O[C@H](SC)[C@H](O)[C@@H](O)[C@H]2O)[C@H](C)Cl)N(C)C1 [CLINDAMYCIN HYDROCHLORIDE] | 0% |  |
| Oc1c(I)cc(Cl)c2cccnc12 [CLIOQUINOL] | 1% |  |
| CCC(=O)O[C@]1(C(=O)CCl)[C@@H](C)C[C@H]2[C@@H]3CCC4=CC(=O)C=C[C@]4(C)[C@@]3(F)[C@@H](O)C[C@@]21C [CLOBETASOL PROPIONATE] | 2% |  |
| CC(C)/N=c1\cc2n(-c3ccc(Cl)cc3)c3ccccc3nc-2cc1Nc1ccc(Cl)cc1 [CLOFAZIMINE] | 0% |  |
| CC(C)(C)CC(C)(C)c1ccc(O)c(Cc2ccc(Cl)cc2Cl)c1 [CLOFOCTOL] | 2% |  |
| COC(=O)[C@H](c1ccccc1Cl)N1CCc2sccc2C1 [CLOPIDOGREL SULFATE] | 11% |  |
| Cc1nc(C)c(Cl)c(O)c1Cl [CLOPIDOL] | 2% |  |
| C/C1=C2/[N-][C@H]([C@H](CC(N)=O)[C@@]2(C)CCC(=O)NC[C@@H](C)OP(=O)([O-])O[C@H]2[C@@H](O)[C@@H](n3cnc4cc(C)c(C)cc43)O[C@@H]2CO)[C@]2(C)N=C(/C(C)=C3N=C(/C=C4N=C1[C@@H](CCC(N)=O)C\4(C)C)[C@@H](CCC(N)=O)[C@]\3(C)CC(N)=O)[C@@H](CCC(N)=O)[C@]2(C)CC(N)=O.[CH2-][C@H]1O[C@@H](n2cnc3c(N)ncnc32)[C@H](O)[C@@H]1O.[Co] [COENZYME B12] |  | 20 |
| C=C[C@@]1(C)CC(=O)[C@]2(O)[C@@]3(C)[C@@H](O)CCC(C)(C)[C@@H]3[C@H](O)[C@H](OC(C)=O)[C@@]2(C)O1 [COLFORSIN] | 1% |  |
| C[C@H]1[C@H]2CC[C@H]3[C@@H]4CC=C5C[C@@H](N(C)C)CC[C@]5(C)[C@H]4CC[C@]23CN1C [CONESSINE] | 2% |  |
| C[C@@H]1O[C@@H](O[C@H]2CC[C@]3(C=O)[C@H]4CC[C@]5(C)[C@@H](C6=CC(=O)OC6)CC[C@]5(O)[C@@H]4CC[C@]3(O)C2)[C@H](O)[C@H](O)[C@H]1O [CONVALLATOXIN] | 1% |  |
| COC(=O)[C@H]1[C@H]2C[C@H]3c4[nH]c5ccccc5c4CCN3C[C@@H]2CC[C@@H]1O [CORYNANTHINE] |  | 2 |
| COc1c2c(cc3c1OCO3)CC[N+](C)=C2 [COTARNINE CHLORIDE] | 2% |  |
| CC(=O)Oc1c(C)cccc1C(=O)O [CRESOPIRINE] |  | 1 |
| C[C@H]1COC2=C1C(=O)C(=O)c1c2ccc2c1CCCC2(C)C [CRYPTOTANSHINONE] | 16% |  |
| COc1cc(/C=C/C(=O)CC(=O)/C=C/c2ccc(O)c(OC)c2)ccc1O [CURCUMIN] | 1% |  |
| NC1=NCCN1CC(=O)O [CYCLOCREATINE] | 0% |  |
| N[C@@H]1CON=C1O [CYCLOSERINE] | 0% |  |
| CC1(C)C(C=C(Cl)Cl)C1C(=O)OC(C#N)c1cccc(Oc2ccccc2)c1 (stereo not drawn) [CYPERMETHRIN] | 3% |  |
| CC(=O)O[C@]1(C(C)=O)CC[C@H]2[C@@H]3C=C(Cl)C4=CC(=O)[C@@H]5C[C@@H]5[C@]4(C)[C@H]3CC[C@@]21C [CYPROTERONE ACETATE] | 0% |  |
| Cl.NCCS [CYSTEAMINE HYDROCHLORIDE] |  | 19 |
| O=c1cccc2n1C[C@@H]1CNC[C@H]2C1 [CYTISINE] | 3% |  |
| CN(C)/N=N/c1[nH]cnc1C(N)=O [DACARBAZINE] | 3% |  |

| Structure (SMILES) | inhibition at 50 µM | Inhibition (%) |
| --- | --- | --- |
| C=CC(C1=CC(=O)C(OC)=CC1=O)c1ccc(O)cc1 (stereo not drawn) [DALBERGIONE. 4-METHOXY-4'-HYDROXY-] |  | 90 |
| C=CC(C1=CC(=O)C=CC1=O)c1ccccc1 (stereo not drawn) [DALBERGIONE] | 91% |  |
| O=C1c2cccc(O)c2C(=O)c2c(O)cccc21 [DANTHRON] | 1% |  |
| O=C1CN(/N=C/c2ccc(-c3ccc([N+](=O)[O-])cc3)o2)C(O)=N1 [DANTROLENE SODIUM] | 3% |  |
| Nc1ccc(S(=O)(=O)c2ccc(N)cc2)cc1 [DAPSONE] | 0% |  |
| NC(=O)C(c1ccccc1)(c1ccccc1)[C@@H]1CCN(CCc2ccc3c(c2)CCO3)C1 [DARIFENACIN HYDROBROMIDE] | 2% |  |
| COc1cccc2c1C(=O)c1c(O)c3c(c(O)c1C2=O)C[C@@](O)(C(C)=O)C[C@@H]3O[C@H]1C[C@H](N)[C@H](O)[C@H](C)O1 [DAUNORUBICIN] | 2% |  |
| CC1(C)C(=O)C=C[C@]2(C)[C@H]3CC[C@@]4(C)[C@H](c5ccoc5)OC(=O)[C@H]5O[C@]54[C@]3(C)C(=O)C[C@@H]12 [DEACETOXY-7-OXOGEDUNIN] | 2% |  |
| CC1(C)C(=O)C=C[C@]2(C)[C@H]3CC[C@@]4(C)[C@H](c5ccoc5)OC(=O)[C@H]5O[C@]54[C@]3(C)[C@H](O)C[C@@H]12 [DEACETYLGEDUNIN] | 1% |  |
| C[N+](C)(C)CCCCCCCCCC[N+](C)(C)C [DECAMETHONIUM BROMIDE] | 0% |  |
| CCCCCCCCCCOc1cc2c(O)c(C(=O)OCC)cnc2cc1OCC [DECOQUINATE] | 36% |  |
| CC(=O)N(O)CCCCCNC(=O)CCC(=O)N(O)CCCCCNC(=O)CCC(=O)N(O)CCCCCN [DEFEROXAMINE MESYLATE] | 1% |  |
| CC(C)c1ccc2c(c1)CC[C@H]1[C@](C)(C(N)=O)CCC[C@]21C [DEHYDROABIETAMIDE] | 2% |  |
| C[C@H](CCC(=O)O)[C@H]1CC[C@H]2[C@@H]3C(=O)C[C@@H]4CC(=O)CC[C@]4(C)[C@H]3CC(=O)[C@]12C [DEHYDROCHOLIC ACID] | 4% |  |
| C=C(C)[C@H]1Cc2c(ccc3c(=O)c4c(oc23)COc2cc(OC)c(OC)cc2-4)O1 [DEHYDROROTENONE] | 1% |  |
| COc1ccc2c(c1)OCc1c-2oc2cc(OC)ccc12 [DEHYDROVARIABILIN] | 1% |  |
| CN(C)[C@@H]1C(O)=C(C(N)=O)C(=O)[C@@]2(O)C(O)=C3C(=O)c4c(O)ccc(Cl)c4[C@@H](O)[C@H]3C[C@@H]12 [DEMECLOCYCLINE HYDROCHLORIDE] | 109% |  |
| CC[N+](CC)(CC(=O)Nc1c(C)cccc1C)Cc1ccccc1 [DENATONIUM BENZOATE] | 1% |  |
| Nc1ncnc2c1ncn2[C@H]1C[C@H](O)[C@@H](CO)O1 [DEOXYADENOSINE] | 3% |  |
| CC(=O)O[C@@H]1C[C@H]2C(C)(C)C(=O)C=C[C@]2(C)[C@H]2CC[C@]3(C)C(=CC(=O)O[C@H]3c3ccoc3)[C@@]21C [DEOXYGEDUNIN] |  | 0 |
| CC(=O)O[C@H]1C[C@@H](OC(C)=O)C(C)(C)[C@@H]2C[C@@H](OC(C)=O)[C@@]3(C)C4=CC(=O)O[C@@H](c5ccoc5)[C@]4(C)CC[C@@H]3[C@@]12C [DEOXYKHIVORIN] |  | 1 |
| COc1ccc(-c2cc(C(F)F)nn2-c2ccc(S(N)(=O)=O)cc2)cc1F [DERACOXIB] | 2% |  |
| C=C[C@@]1(C)CC(=O)[C@@]2(O)[C@](C)(O1)[C@@H](O)[C@@H](O)C1C(C)(C)CC[C@H](O)[C@@]12C (stereo partly drawn) [DESACETYLCOLFORSIN] |  | 1 |
| CC1(C)O[C@@H]2C[C@H]3[C@@H]4CCC5=CC(=O)C=C[C@]5(C)[C@H]4[C@@H](O)C[C@]3(C)[C@]2(C(=O)CO)O1 [DESONIDE] | 0% |  |

Source: article PMC6627609, “Targeting Quorum Sensing: High-Throughput Screening to Identify Novel LsrK Inhibitors” (International Journal of Molecular Sciences, 2019)
